Experimental data as given in patent US20070281938A1, “Inhibitors of 11-Beta-Hydroxy Steroid Dehydrogenase Type 1” (Amgen Inc., priority 2004, published 2007).

Target: T1, human 11-β-hydroxysteroid dehydrogenase type-1 enzyme (11-β-HSD1) (Homo sapiens, UniProt P28845)
T1 construct: made in house; host or cells: Pichia pastoris (cell homogenate or microsomes)
Assay: Scintillation Proximity Assay, 11-β-HSD1 enzyme assay (Ki)
Assay type: biochemical
Details: human 11-β-HSD1 expressed in Pichia pastoris; Ki calculated from IC50 (Cheng-Prusoff)
Source text: [1,2(n)—^3H]-cortisone was purchased from Amersham Pharmacia Biotech. Anti-cortisol monoclonal mouse antibody, clone 6D6.7 was obtained from Immunotech and Scintillation proximity assay (SPA) beads coated with monoclonal antimouse antibodies were from Amersham Pharmacia Biotech. NADPH, tetrasodium salt was from Calbiochem and glucose-6-phosphate (G-6-P) was supplied by Sigma. The human 11-β-hydroxysteroid dehydrogenase type-1 enzyme (11-β-HSD1) was expressed in Pichiapastoris. 18-β-glycyrrhetinic acid (GA) was obtained from Sigma. The serial dilutions of the compounds were performed on a Tecan Genesis RSP 150. Compounds to be tested were dissolved in DMSO (1 mM) and diluted in 50 mM Tris-HCl, pH 7.2 containing 1 mM EDTA.
The multiplication of plates was done on a WallacQuadra. The amount of the product [^3H]-cortisol, bound to the beads was determined in a Packard, Top Count microplate liquid scintillation counter.
The 11-β-HSD1 enzyme assay was carried out in 96 well microtiter plates (Packard, Optiplate) in a total well volume of 220 μL and contained 30 mM Tris-HCl, pH 7.2 with 1 mM EDTA, a substrate mixture tritiated Cortisone/NADPH (175 nM/181 μM), G-6-P (1 mM) and inhibitors in serial dilutions (9 to 0.15 μM). […]
The plates were covered with plastic film and incubated on a shaker for 30 minutes, at room temperature, before counting. The amount of [^3H]-cortisol, bound to the beads was determined in a microplate liquid scintillation counter. […] The Ki value is calculated from IC50 and the Km value is calculated using the Cheng Prushoff equation (with reversible inhibition that follows the Michaelis-Menten equation): […] [Cheng, Y. C.; Prushoff, W. H. Biochem. Pharmacol. 1973, 22, 3099-3108]. The IC50 is measured experimentally in an assay wherein the decrease of the turnover of cortisone to cortisol is dependent on the inhibition potential of each substance. […]

T1 sequence (P28845 whole entry): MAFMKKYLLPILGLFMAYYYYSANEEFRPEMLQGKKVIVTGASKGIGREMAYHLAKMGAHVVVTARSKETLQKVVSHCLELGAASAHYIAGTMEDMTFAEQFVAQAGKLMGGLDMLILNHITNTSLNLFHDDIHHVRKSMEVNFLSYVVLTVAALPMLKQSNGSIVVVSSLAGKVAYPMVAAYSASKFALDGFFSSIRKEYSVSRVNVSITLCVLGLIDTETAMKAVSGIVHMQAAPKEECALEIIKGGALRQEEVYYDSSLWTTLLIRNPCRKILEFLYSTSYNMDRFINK

Ki	Structure (SMILES)
250 nM	O=C1N=C(NC2CCCCCC2)SC12CCC2 [Example 10, 6-(Cycloheptylamino)-5-thia-7-azaspiro[3.4]oct-6-en-8-one]
174 nM	CC(C)C1SC(NC2(c3ccc(Cl)cc3)CCC2)=NC1=O (stereo not drawn) [Example 48, 2-{[1-(4-Chlorophenyl)cyclobutyl]amino}-5-isopropyl-1,3-thiazol-4(5H)-one]
107 nM	CC1(C)SC(NCC2CCCCC2)=NC1=O [Example 14, 2-[(cyclohexylmethyl)amino]-5,5-dimethyl-1,3-thiazol-4(5H)-one]
